Source: patent US9181234B2, “Antibacterial compounds” (priority 2010, dated 2015)
In brackets after ≈: the same amount, converted by molar mass.

Key:
[1] = system: Staphylococcus aureus (Isolate ID ATCC 29213); experiment: Antibacterial activity, MIC, S. aureus; assay type: cell-based; settings: broth microdilution or agar dilution; for MIC: Staphylococcus aureus, ATCC29213, Gram positive strain; for Antibacterial Activity (MIC) S. aureus (ATCC 29213): Gram positive strain
Outline: (§1)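 Broth microdilution or agar dilution per CLSI M7-A7; MIC read as susceptibility endpoint in liquid or solid medium.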

[2] = system: Streptococcus pyogenes (Isolate ID ATCC 51339); experiment: Antibacterial activity, MIC, S. pyogenes; assay type: cell-based; settings: broth microdilution or agar dilution; for MIC: Streptococcus pyogenes, ATCC51339, Gram positive strain; for Antibacterial Activity (MIC) S. pyogenes (ATCC 51339): Gram positive strain
Outline: as §1

[3] = system: Enterococcus faecalis (Isolate ID ATCC 29212); experiment: Antibacterial activity, MIC, E. faecalis; assay type: cell-based; settings: Gram positive strain, broth microdilution or agar dilution; for MIC: Enterococcus faecalis, ATCC29212
Outline: as §1

[4] = system: Haemophilus influenzae (Isolate ID ATCC 49247); experiment: Antibacterial activity, MIC, H. influenzae; assay type: cell-based; settings: Gram negative strain, broth microdilution or agar dilution; for MIC: Haemophilus influenzae, ATCC49247
Outline: as §1

[5] = physchem; settings: for solubility at 24 h: kinetic from dmso stock
Outline: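 DMSO doubling dilutions were diluted twenty-fold into 100 mM citrate (pH 4), PBS (pH 7.4) or carbonate-bicarbonate (pH 9). After 24 h equilibration at room temperature, absorbance was read at 620 nm. The reported value is the highest concentration without measurable precipitate.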

[6] = pH 7.4, aqueous buffer, Solubility (pH 7.4)
[7] = pH 7.4, aqueous buffer, Solubility Range
[8] = pH 7.4, aqueous buffer, Max Solubility
[9] = pH 7.4, aqueous buffer, Solubility Range (maximum solubility)
[10] = pH 9, aqueous buffer, Max Solubility
[11] = pH 9, aqueous buffer, Solubility Range (maximum solubility)

Row | SMILES | MIC [1] [µg/mL] | MIC [2] [µg/mL] | MIC [3] [µg/mL] | MIC [4] [µg/mL] | solubility at 24 h [5, 6] [µg/mL] | solubility at 24 h [5, 7] [µg/mL] | solubility at 24 h [5, 8] [µg/mL] | solubility at 24 h [5, 9] [µg/mL] | Antibacterial Activity (MIC) S. aureus (ATCC 29213) [1] | Antibacterial Activity (MIC) S. pyogenes (ATCC 51339) [2] | Antibacterial Activity (MIC) E. faecalis (ATCC 29212) [3] | Antibacterial Activity (MIC) H. influenzae (ATCC 49247) [4] | Max Solubility ([5]; pH 7.4) | Solubility (pH 7.4) ([5]; pH 7.4) | solubility at 24 h [5, 10] [µg/mL] | solubility at 24 h [5, 11] [µg/mL] | Max Solubility ([5]; pH 9)
1 | CCNC(=O)Nc1nc2cc(-c3cnc(N4CCC(CC)(C(=O)O)CC4)nc3)cc(-c3ncccc3C#N)c2s1 [Compound 104] | ≤ 0.25 | ≤ 0.25 | ≤ 0.25 | 1 to 16 (≈ 1.8 to 28.7 µM) | 12.5 (≈ 22.5 µM) | 12.5 to 400 (≈ 22.5 to 719 µM) | – | – | – | – | – | – | – | – | – | – | –
2 | CCNC(=O)Nc1nc2cc(-c3cnc(N4CCC(CC)(C(=O)O)CC4)nc3)cc(-c3ccc(C#N)cn3)c2s1 [Compound 105] | ≤ 0.25 | ≤ 0.25 | ≤ 0.25 | 1 to 16 (≈ 1.8 to 28.7 µM) | ≥ 800 | > 800 | ≥ 800 | > 800 | – | – | – | – | – | – | – | – | –
3 | CCNC(=O)Nc1nc2cc(-c3cnc(N4CCC(CC)(C(=O)O)CC4)nc3)cc(-c3ncnc4[nH]ccc34)c2s1 [Compound 106] | 0.25 to 1 (≈ 0.437 to 1.75 µM) | ≤ 0.25 | ≤ 0.25 | 1 to 16 (≈ 1.75 to 28 µM) | ≥ 800 | > 800 | ≥ 800 | > 800 | – | – | – | – | – | – | – | – | –
4 | CCNC(=O)Nc1nc2cc(-c3cnc(N4CCC(CC)(C(=O)OCC)CC4)nc3)cc(Br)c2s1 [Compound 107] | – | – | – | – | – | – | – | – | A (“A” activity ≦0.25 μg/mL) | B (“B” activity >0.25 μg/mL-1.0 μg/mL) | A (“A” activity ≦0.25 μg/mL) | D (“D” activity >16 μg/mL) | ≧800 μg/mL | ≧800 μg/mL | – | – | –
5 | CCNC(=O)Nc1nc2cc(-c3cnc(N4CCC(CC)(C(=O)O)CC4)cn3)cc(-c3ccccn3)c2s1 [Compound 108] | ≤ 0.25 | ≤ 0.25 | ≤ 0.25 | 1 to 16 (≈ 1.88 to 30.1 µM) | ≥ 800 | > 800 | ≥ 800 | > 800 | – | – | – | – | – | – | – | – | –
6 | CCNC(=O)Nc1nc2cc(-c3cnc(N4CCC(CC)(C(=O)O)CC4)nc3)cc(-c3nccc(OC)n3)c2s1 [Compound 109] | ≤ 0.25 | ≤ 0.25 | ≤ 0.25 | > 16 | ≥ 800 | > 800 | ≥ 800 | > 800 | – | – | – | – | – | – | – | – | –
7 | CCNC(=O)Nc1nc2cc(-c3cnc(N4CCC(CC)(C(=O)O)CC4)nc3)cc(-c3cc(OC)ncn3)c2s1 [Compound 110] | ≤ 0.25 | ≤ 0.25 | ≤ 0.25 | 0.25 to 1 (≈ 0.444 to 1.78 µM) | ≥ 800 | > 800 | ≥ 800 | > 800 | – | – | – | – | – | – | – | – | –
8 | CCNC(=O)Nc1nc2cc(-c3cnc(N4CCC(CC)(C(=O)O)CC4)cn3)cc(-c3nccc(C)n3)c2s1 [Compound 112] | 0.25 to 1 (≈ 0.457 to 1.83 µM) | ≤ 0.25 | ≤ 0.25 | 1 to 16 (≈ 1.83 to 29.3 µM) | 25 (≈ 45.7 µM) | 12.5 to 400 (≈ 22.9 to 732 µM) | – | – | – | – | – | – | – | – | 100 (≈ 183 µM) | 12.5 to 400 (≈ 22.9 to 732 µM) | –
9 | CCNC(=O)Nc1nc2cc(-c3cnc(N4CCC(CC)(C(=O)O)CC4)nc3)ccc2s1 [Compound 113] | 1 to 16 (≈ 2.2 to 35.2 µM) | 1 to 16 (≈ 2.2 to 35.2 µM) | 0.25 to 1 (≈ 0.55 to 2.2 µM) | > 16 | 100 (≈ 220 µM) | 12.5 to 400 (≈ 27.5 to 880 µM) | 100 (≈ 220 µM) | 12.5 to 400 (≈ 27.5 to 880 µM) | – | – | – | – | – | – | – | – | –
10 | CCNC(=O)Nc1nc2cc(-c3cnc(N4CCC(CC)(C(=O)O)CC4)nc3)cc(N3CCOCC3)c2s1 [Compound 114, 4-ethyl-1-[5-[2-(ethylcarbamoylamino)-7-morpholino-1,3-benzothiazol-5-yl]pyrimidin-2-yl]piperidine-4-carboxylic acid] | 1 to 16 (≈ 1.85 to 29.6 µM) | 1 to 16 (≈ 1.85 to 29.6 µM) | ≤ 0.25 | > 16 | 400 (≈ 741 µM) | 400 to 800 (≈ 741 to 1480 µM) | 400 (≈ 741 µM) | 400 to 800 (≈ 741 to 1480 µM) | – | – | – | – | – | – | – | – | –
11 | CCNC(=O)Nc1nc2cc(-c3cnc(N4CCC(CC)(C(=O)O)CC4)nc3)cc(-c3ccc(F)cc3)c2s1 [Compound 115] | ≤ 0.25 | 1 to 16 (≈ 1.82 to 29.2 µM) | ≤ 0.25 | > 16 | 400 (≈ 729 µM) | 400 to 800 (≈ 729 to 1460 µM) | – | – | – | – | – | – | – | – | ≥ 800 | > 800 | –
12 | CCCC1(C(=O)O)CCN(c2ncc(-c3cc(-c4ccccn4)c4sc(NC(=O)NCC)nc4c3)cn2)CC1 [Compound 117] | ≤ 0.25 | ≤ 0.25 | ≤ 0.25 | 1 to 16 (≈ 1.83 to 29.3 µM) | 400 (≈ 733 µM) | 400 to 800 (≈ 733 to 1470 µM) | – | – | – | – | – | – | – | – | – | – | –
13 | CCCC1(C(=O)O)CCN(c2ncc(-c3cc(-c4cnccn4)c4sc(NC(=O)NCC)nc4c3)cn2)CC1 [Compound 118] | ≤ 0.25 | ≤ 0.25 | ≤ 0.25 | 1 to 16 (≈ 1.83 to 29.3 µM) | 400 (≈ 732 µM) | 400 to 800 (≈ 732 to 1460 µM) | – | – | – | – | – | – | – | – | ≥ 800 | > 800 | –
14 | CCCC1(C(=O)OCC)CCN(c2ncc(-c3cc(Br)c4sc(NC(=O)NCC)nc4c3)cn2)CC1 [Compound 119] | – | – | – | – | – | – | – | – | A (“A” activity ≦0.25 μg/mL) | C (“C” activity >1.0 μg/mL-16 μg/mL) | A (“A” activity ≦0.25 μg/mL) | D (“D” activity >16 μg/mL) | – | 400 μg/mL | – | – | ≧800 μg/mL
15 | CCCC1(C(=O)O)CCN(c2ncc(-c3cc(-c4nccc(C)n4)c4sc(NC(=O)NCC)nc4c3)cn2)CC1 [Compound 120] | ≤ 0.25 | ≤ 0.25 | ≤ 0.25 | > 16 | 400 (≈ 713 µM) | 400 to 800 (≈ 713 to 1430 µM) | – | – | – | – | – | – | – | – | ≥ 800 | > 800 | –
16 | CCCC1(C(=O)O)CCN(c2ncc(-c3cc(-c4cc(OC)ncn4)c4sc(NC(=O)NCC)nc4c3)cn2)CC1 [Compound 121] | ≤ 0.25 | ≤ 0.25 | ≤ 0.25 | 1 to 16 (≈ 1.73 to 27.7 µM) | 100 (≈ 173 µM) | 12.5 to 400 (≈ 21.7 to 694 µM) | – | – | – | – | – | – | – | – | ≥ 800 | > 800 | –
17 | CCCC1(C(=O)O)CCN(c2ncc(-c3cc(-c4cc(OC)ccn4)c4sc(NC(=O)NCC)nc4c3)cn2)CC1 [Compound 122] | ≤ 0.25 | ≤ 0.25 | ≤ 0.25 | 1 to 16 (≈ 1.74 to 27.8 µM) | ≥ 800 | > 800 | ≥ 800 | > 800 | – | – | – | – | – | – | – | – | –
18 | CCCC1(C(=O)O)CCN(c2ncc(-c3cc(-c4cc(C#N)ccn4)c4sc(NC(=O)NCC)nc4c3)cn2)CC1 [Compound 123] | ≤ 0.25 | ≤ 0.25 | ≤ 0.25 | > 16 | ≥ 800 | > 800 | ≥ 800 | > 800 | – | – | – | – | – | – | – | – | –
19 | CCCC1(C(=O)O)CCN(c2ncc(-c3cc(-c4ccc(C#N)cn4)c4sc(NC(=O)NCC)nc4c3)cn2)CC1 [Compound 124] | ≤ 0.25 | ≤ 0.25 | ≤ 0.25 | 1 to 16 (≈ 1.75 to 28 µM) | ≥ 800 | > 800 | ≥ 800 | > 800 | – | – | – | – | – | – | – | – | –
